In paper PMC3362486 (Chemico-Biological Interactions, 2012):

Columns and labels:
CYP2A13 [1] = molecular target: T1, CYP2A13 (Homo sapiens, UniProt Q16696); conditions: cited from earlier work
T1 sequence (Q16696 1-494): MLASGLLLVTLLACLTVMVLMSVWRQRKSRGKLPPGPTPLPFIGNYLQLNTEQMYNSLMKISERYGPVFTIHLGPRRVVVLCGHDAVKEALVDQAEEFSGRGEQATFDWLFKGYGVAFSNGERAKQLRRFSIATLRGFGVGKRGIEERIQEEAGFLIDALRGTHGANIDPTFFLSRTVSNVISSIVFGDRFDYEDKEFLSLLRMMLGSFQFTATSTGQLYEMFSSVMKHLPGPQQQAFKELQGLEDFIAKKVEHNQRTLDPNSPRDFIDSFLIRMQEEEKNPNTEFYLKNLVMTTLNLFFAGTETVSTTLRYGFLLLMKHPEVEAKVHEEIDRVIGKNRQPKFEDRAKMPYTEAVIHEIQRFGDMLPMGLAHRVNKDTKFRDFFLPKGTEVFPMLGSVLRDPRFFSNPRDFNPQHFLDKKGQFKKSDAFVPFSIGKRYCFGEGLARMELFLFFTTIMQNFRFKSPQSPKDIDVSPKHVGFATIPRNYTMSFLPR

CYP2A6 [2] = molecular target: T2, CYP2A6 (Homo sapiens, UniProt P11509); assay: biochemical; type: biochemical
T2 sequence (P11509 1-494): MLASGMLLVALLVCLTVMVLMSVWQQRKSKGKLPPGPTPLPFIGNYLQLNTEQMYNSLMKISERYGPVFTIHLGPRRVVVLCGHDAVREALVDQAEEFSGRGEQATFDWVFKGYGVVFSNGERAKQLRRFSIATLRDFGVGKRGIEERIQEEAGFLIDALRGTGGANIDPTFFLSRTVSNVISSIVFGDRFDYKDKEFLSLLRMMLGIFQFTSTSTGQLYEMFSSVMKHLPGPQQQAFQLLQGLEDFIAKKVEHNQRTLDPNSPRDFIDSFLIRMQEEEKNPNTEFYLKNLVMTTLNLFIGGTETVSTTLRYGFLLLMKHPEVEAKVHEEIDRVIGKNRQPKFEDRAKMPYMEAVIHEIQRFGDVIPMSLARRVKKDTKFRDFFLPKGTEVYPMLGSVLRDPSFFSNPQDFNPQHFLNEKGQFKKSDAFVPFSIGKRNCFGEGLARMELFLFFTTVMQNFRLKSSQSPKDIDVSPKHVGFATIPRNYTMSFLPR

CYP2A6 [3] = molecular target: T2, CYP2A6; conditions: cited from earlier work
CYP2A6 [4] = molecular target: T2, CYP2A6; type: biochemical
CYP2A13 [5] = molecular target: T1, CYP2A13; assay: in vitro; type: biochemical; conditions: for activity at 10 min, 20 µM: human, pH 7.4, probe coumarin (7-hydroxylation), 20 μM in the secondary reaction
CYP2A6 [6] = molecular target: T2, CYP2A6; assay: Effect of NADPH and trapping agents; type: biochemical; conditions: for Percent Activity Remaining (10 min relative to 0 min): menthofuran 5 μM or β-nicotyrine 20 μM
CYP2A13 [7] = molecular target: T1, CYP2A13; assay: biochemical
CYP2A6 [8] = molecular target: T2, CYP2A6; assay: Irreversibility of CYP2A6 inactivation; type: biochemical
CYP2A6 [9] = molecular target: T2, CYP2A6; assay: CYP2A6 inactivation kinetics and partition ratio; type: biochemical

Compound	Catalytic efficiency (kcat/Km) of metabolic activation, CYP2A13 versus CYP 2A6 (CYP2A13 [1])	Ki (CYP2A6 [2])	Inhibition of CYP2A6, times less potent than menthofuran and β-nicotyrine (CYP2A6 [2]; comparison of KI values)	Inhibition of CYP2A6 (in words) (CYP2A6 [3])	Inactivation of CYP2A6 (in words) (CYP2A6 [4]; inhibitor 20 μM with NADPH)	activity at 10 min, 20 µM (CYP2A13 [5])	Inactivation of CYP2A13 (in words) (CYP2A13 [5]; inhibitor 20 μM with NADPH)	Percent Activity Remaining (10 min relative to 0 min) (CYP2A6 [6]; inhibitor + NADPH + glutathione (10mM))	Percent Activity Remaining (10 min relative to 0 min) (CYP2A6 [6]; inhibitor + NADPH + semicarbazide (10mM))	Percent Activity Remaining (10 min relative to 0 min) (CYP2A6 [6]; inhibitor + NADPH)	Loss of CYP2A6 enzyme activity (CYP2A6 [6]; menthofuran 5 μM or β-nicotyrine 20 μM with NADPH, 10 min)	Ki (CYP2A13 [7])	Loss of CYP2A6 coumarin 7-hydroxylation activity (CYP2A6 [4]; inhibitor 20 μM, in the presence of NADPH)	Reversibility of CYP2A6 inactivation upon removal of unbound small molecules (CYP2A6 [8])	Loss of CYP2A13 activity (CYP2A13 [5]; inhibitor 20 μM with NADPH)	Loss of CYP2A13-catalyzed coumarin 7-hydroxylation at higher concentration (CYP2A13 [5]; menthofuran 200 μM or 30 min incubations, data not shown)	KI for inactivation of CYP2A6, fold lower than that of β-nicotyrine (CYP2A6 [9])	Partition ratio, times higher than for β-nicotyrine-mediated inactivation (CYP2A6 [9]; calculated partition ratio)
CN(CCCC(=O)c1cccnc1)N=O [NNK, 4-(methylnitrosamino)-1-(3-pyridyl)-1-butanone]	200 fold	–	–	–	–	–	–	–	–	–	–	–	–	–	–	–	–	–
CC(C)[C@@H]1CC[C@@H](C)C[C@H]1O [Menthol, (1R,2S,5R)-2-isopropyl-5-methylcyclohexanol]	–	110000 ± 10700 nM	100 times	weak inhibitor	no indication	87 ± 11%	no indication	–	–	–	–	–	–	–	–	–	–	–
Cc1coc2c1CC[C@@H](C)C2 [Menthofuran, 3,6R-dimethyl-4,5,6,7-tetrahydro-1-benzofuran]	–	290 ± 50 nM	–	–	–	91 ± 5%	–	48%	40%	43%	about 60%	1240 ± 260 nM	95%	not reversible	no significant loss	no loss	~50 fold	~ 3.5 times
